Where two headings read alike, the source gives them in different places. Where a SMILES comes first, the peptide text is derived from it. Bridges are numbered along the chain shown (N, C = ends). Triazole bridges read from a SMILES are 1,4-linked. Side-chain parts run from the residue outwards. [ ]: non-standard residue; d: D form. The star is where a group is joined. X1 = NC(=O)CN1CCN(CC(=O)O)CCN(CC(=O)*)CCN(CC(=O)O)CC1; Lys(N3) = [N-]=[N+]=NCCCC[C@H](N)C(=O)O; Nle = CCCC[C@H](N)C(=O)O; Pra = C#CC[C@H](N)C(=O)O; AEEA = NCCOCCOCC(=O)O
Assays:
[1] = In vivo biodistribution of [^203Pb]VMT01 in B16-F10 melanoma xenograft model; parameters: species or system athymic nude mice; settings: athymic nude, mouse, intravenous, 74 KBq, total radioactivity, tail vein; for tissue uptake at 0.5 h: 0.5 h post-injection; for tissue uptake at 1.5 h: 1.5 h post-injection; for tissue uptake at 3 h: 3 h post-injection; for tissue uptake at 6 h: 6 h post-injection; for tissue uptake at 24 h: 24 h post-injection
Experimental: Radiolabeling of VMT01 was carried out according to published methods. Briefly, ^203Pb^2+ was purified on 50 mg Pb-resin (Eichrom Technologies, Lisle, IL, USA) and eluted into reaction vessel using 0.5 M sodium acetate (NaOAc) pH = 6 buffer. The reaction vessel contained 20 nmole VMT01 peptide precursor and 0.29 mL of 0.5 M sodium acetate (NaOAc) pH = 4 buffer to adjust final pH to 5.4. The reaction solution was heated under 85 °C for 30 min. After reactions, free ^203Pb was removed by StrataX C-18 SPE cartridge (Phenomenex, Torrance, CA, USA) and final products were collected in 50% EtOH in saline. Biodistribution of [^203Pb]VMT01 was determined in a B16-F10 murine melanoma xenograft model in athymic nude mice. B16-F10 xenograft was developed by the subcutaneous (SC) injection of 2 × 10^5 B16-F10 cells at the left shoulder in 100 µL 50% Matrigel in complete growth media. Then, 74 KBq of [^203Pb]VMT01 (5.4 pmole) were administered via tail vein injection (2 male and 2 female at each time point) in 100 µL of saline with less than 10% EtOH content. At 0.5, 1.5, 3, 6, and 24 h post-injection, animals were euthanized, and organs of interest were harvested and weighed. Radioactivity in tumor and organs was measured on a Cobra II automated gamma counter. […] The value for 48 h was extrapolated from the last 3 time points (3, 6, and 24 h) of the biodistribution by one phase exponential decay with least squares fitting method (GraphyPrism V7). The average kidney volume was assumed to be 0.33 cm^3 for C57BL6 mice. […] The voxel size of the model was adjusted to have the same kidney volume as the averaged value (0.33 cm^3). The elemental composition of the kidney and the mass density was assumed to be identical as the human adults’ values obtained from the International Commission on Radiation Units and measurements (ICRU) report 46 [52].

[2] = system: metastatic melanoma; parameters: method as in PMID 31562797; settings: patients with metastatic melanoma; ref [13]; cited from earlier work
[3] = both sexes, blood, read-out: Biodistribution, Blood, Average
[4] = both sexes, brain, read-out: Biodistribution, Brain, Average
[5] = both sexes, heart, read-out: Biodistribution, Heart, Average
[6] = both sexes, kidney, read-out: Biodistribution, Kidneys, Average
[7] = both sexes, liver, read-out: Biodistribution, Liver, Average
[8] = both sexes, lungs, read-out: Biodistribution, Lungs, Average
[9] = both sexes, muscle, read-out: Biodistribution, Muscle, Average
[10] = both sexes, skin, read-out: Biodistribution, Skin, Average
[11] = both sexes, spleen, read-out: Biodistribution, Spleen, Average
[12] = both sexes, tumor, read-out: Biodistribution, Tumor, Average
[13] = male, testes, read-out: Biodistribution, Testes, Average

CCCC[C@H](NC(C)=O)C(=O)N[C@H]1Cc2cn(nn2)CCCC[C@@H](C(=O)N[C@@H](CCCCNC(=O)COCCOCCNC(=O)CN2CCN(CC(=O)O)CCN(CC(N)=O)CCN(CC(=O)O)CC2)C(N)=O)NC(=O)[C@H](Cc2c[nH]c3ccccc23)NC(=O)[C@H](CCCNC(=N)N)NC(=O)[C@@H](Cc2ccccc2)NC(=O)[C@H](Cc2c[nH]cn2)NC1=O [[^203Pb]VMT01, metal not drawn] (Ac-[Nle][Pra]H[dF]RW[Lys(N3)]K([AEEA-X1])-NH2; triazole 2-7)
tissue uptake at 0.5 h [1, 3]: 1.1 %ID/g | tissue uptake at 1.5 h [1, 3]: 0.08 %ID/g | tissue uptake at 3 h [1, 3]: 0.03 %ID/g | tissue uptake at 6 h [1, 3]: 0.02 %ID/g | tissue uptake at 24 h [1, 3]: 0.01 %ID/g | tissue uptake at 0.5 h [1, 4]: 0.06 %ID/g | tissue uptake at 1.5 h [1, 4]: 0.02 %ID/g | tissue uptake at 3 h [1, 4]: 0.01 %ID/g | tissue uptake at 6 h [1, 4]: 0.01 %ID/g | tissue uptake at 24 h [1, 4]: 0.01 %ID/g | tissue uptake at 0.5 h [1, 5]: 0.66 %ID/g | tissue uptake at 1.5 h [1, 5]: 0.08 %ID/g | tissue uptake at 3 h [1, 5]: 0.05 %ID/g | tissue uptake at 6 h [1, 5]: 0.03 %ID/g | tissue uptake at 24 h [1, 5]: 0.02 %ID/g | tissue uptake at 0.5 h [1, 6]: 12.8 %ID/g | tissue uptake at 1.5 h [1, 6]: 6.1 %ID/g | tissue uptake at 3 h [1, 6]: 6 %ID/g | tissue uptake at 6 h [1, 6]: 5.3 %ID/g | tissue uptake at 24 h [1, 6]: 2.6 %ID/g | tissue uptake at 0.5 h [1, 7]: 0.64 %ID/g | tissue uptake at 1.5 h [1, 7]: 0.43 %ID/g | tissue uptake at 3 h [1, 7]: 0.31 %ID/g | tissue uptake at 6 h [1, 7]: 0.37 %ID/g | tissue uptake at 24 h [1, 7]: 0.22 %ID/g | tissue uptake at 0.5 h [1, 8]: 2.8 %ID/g | tissue uptake at 1.5 h [1, 8]: 2.98 %ID/g | tissue uptake at 3 h [1, 8]: 1.34 %ID/g | tissue uptake at 6 h [1, 8]: 1 %ID/g | tissue uptake at 24 h [1, 8]: 0.2 %ID/g | tissue uptake at 0.5 h [1, 9]: 0.73 %ID/g | tissue uptake at 1.5 h [1, 9]: 0.09 %ID/g | tissue uptake at 3 h [1, 9]: 0.04 %ID/g | tissue uptake at 6 h [1, 9]: 0.03 %ID/g | tissue uptake at 24 h [1, 9]: 0.02 %ID/g | tissue uptake at 0.5 h [1, 10]: 2.23 %ID/g | tissue uptake at 1.5 h [1, 10]: 0.27 %ID/g | tissue uptake at 3 h [1, 10]: 0.15 %ID/g | tissue uptake at 6 h [1, 10]: 0.17 %ID/g | tissue uptake at 24 h [1, 10]: 0.09 %ID/g | tissue uptake at 0.5 h [1, 11]: 0.58 %ID/g | tissue uptake at 1.5 h [1, 11]: 0.17 %ID/g | tissue uptake at 3 h [1, 11]: 0.12 %ID/g | tissue uptake at 6 h [1, 11]: 0.11 %ID/g | tissue uptake at 24 h [1, 11]: 0.09 %ID/g | tissue uptake at 0.5 h [1, 12]: 5.5 %ID/g | tissue uptake at 1.5 h [1, 12]: 8.9 %ID/g | tissue uptake at 3 h [1, 12]: 4.5 %ID/g | tissue uptake at 6 h [1, 12]: 3.8 %ID/g | tissue uptake at 24 h [1, 12]: 1.7 %ID/g | tissue uptake at 0.5 h [1, 13]: 3.23 %ID/g | tissue uptake at 1.5 h [1, 13]: 0.1 %ID/g | tissue uptake at 3 h [1, 13]: 0.04 %ID/g | tissue uptake at 6 h [1, 13]: 0.04 %ID/g | tissue uptake at 24 h [1, 13]: 0.03 %ID/g

ipilimumab: anti-CTLA-4
complete response rate [2]: 6%

nivolumab: anti-PD1
complete response rate [2]: 19%
